This is an account of results in patent USRE39707E1, “Camptothecin derivatives” (Catholic Healthcare West, priority 2001, dated 2007).

In series [1] the test system is VM46. Description: Cell colony formation assay, VM46 cells. It is filed as cell-based. Conditions: 72 hours drug exposure. How it is done:
(§1) This example provides directions for growing cells and testing compounds of the invention for their effect on the growth of the cells. All cells were purchased from DCIDC Tumor Repository, NCI, NIH.
(§2) Four hundred cells (HCT 116, PC-3, NCI/ADR-RES: human breast cancer cells) or five hundred cells (VM46) were plated in 60 mm Petri dishes containing 2.7 ml of medium (modified McCoy's 5a medium) containing 10% fetal bovine serum and 100 units/ml penicillin and 100 mg/ml streptomycin. The cells were incubated in a CO2 incubator at 37° C. for 5 hours for attachment to the bottom of Petri dishes. Drugs were made fresh in medium at ten times the final concentration, and then 0.3 ml of this stock solution was added to the 2.7 ml of medium in the dish. The cells were then incubated with drugs for 72 hours at 37° C. At the end of the incubation the drug-containing media were decanted, the dishes were rinsed with 4 ml of Hank's Balance Salt Solution (HBSS), 5 ml of fresh medium was added, and the dishes were returned to the incubator for colony formation. The cell colonies were counted using colony counter after incubation for 7 days for HCT116 cells and PC-3 cells and 8 days for VM46 cells, respectively.
(§3) Values of ID50 (the drug concentration producing 50% inhibition of colony formation) may be determined for each tested compound. The directions described in this example may be used in other cells, such as DU-145.

Series [2] concerns PC-3. Briefly: Cell colony formation assay, PC-3 cells. To be noted: 72 hours drug exposure. In kind it is cell-based, human. The protocol: as §1, §2, §3
For series [3], the system named is HCT116. Description: Cell colony formation assay, HCT116 cells. It is filed as cell-based, human. To be noted: 72 hours drug exposure. How it is done:
as §1
as §2, with “The” for “Four hundred cells (HCT 116, PC-3, NCI/ADR-RES: human breast cancer cells) or five hundred cells (VM46) were plated in 60 mm Petri dishes containing 2.7 ml of medium (modified McCoy's 5a medium) containing 10% fetal bovine serum and 100 units/ml penicillin and 100 mg/ml streptomycin. The”

For series [4], the system named is C3H/HeJ mice. Conditions: maximum tolerated dose at day 40, C3H/HeJ mice. How it is done:
This example provides directions for performing in vivo toxicity tests of the compounds of the invention on C3H/HeJ mice.
Acute toxicities of the compounds of this invention are evaluated on C3H/HeJ mice (body weight 18-22 g). The MTD40 (maximum tolerated dose at day 40) values were determined by the standard procedure described by Gad and Chengelis (see, for example, “Acute Toxicology Testing,” 2nd Ed., Shayne O. Gad and Christopher P. Chengelis, pp. 186-195 (Academic Press)). In the consecutive type studies, 2 mice were dosed at low and moderate doses of 40 and 100 mg/kg. If no severe and irreversible toxicity (euthanasia is required) occurs at these doses, a new pair of animals was initiated at 180 mg/kg, which is 1.8 times higher than 100 mg/kg. Sequential dosages (about 3 doses on 3 pairs of animals, i.e. 2 mice for each drug dose) were increased by a factor of 1.8 until severe and irreversible toxicity (euthanasia is required) occurred. Then another pair of animals was initiated at the highest nonlethal dosage, and successive dosages were increased by a factor of 1.15. The result of this exercise was two dosages, one apparently nonlethal and the other lethal if severe and irreversible toxicity occurs and euthanasia is required, separated by a factor of 1.15. Six mice were dosed at each dosage. If no severe and irreversible toxicity occurred at the lower dosage and at least one with severe and irreversible toxicity occurred at the higher dose, then the lower dose was considered to be the MTD. The compounds of this invention were administered to C3H/HeJ mice by intraperitoneal injection. Drug toxicity was evaluated on mice checked daily for 45 days.

Series [5] relates to MTG-B mouse mammary Adenocarcinoma. Briefly: In vivo efficacy in C3H/HeJ mice bearing MTG-B tumors. To be noted: for T (Surviving days after treatment of MTG-B mouse mammary Adenocarcinoma In C3H/Hej mice): i.p., control mice survived 6 days; for CD/Taxol: ratio of extra days of survival with compound to extra days of survival with taxol, each compared to control; for T/C %: surviving days treated / surviving days control x 100%, control 6 days. How it is done: This example provides directions for performing in vivo efficacy tests of the compounds of the invention on C3H/HeJ mice bearing MTG-B tumors.
Studies on the compounds of this invention were performed on C3H/HeJ mice bearing […] tumors. […] Treatment was initiated at that time, with the first day of treatment designated as day 0 for calculation and plots. The mice were injected i.p. with thee drug dose levels (⅓, ½, 1×MTD) using both a single injection and the schedule of Q2D×3 (every 2 days for a total of 3 treatments at ⅓ MTD). Control groups of mice bearing 8 mm diameter tumors were treated with vehicle alone. […] When a tumor reached 1.5 g, the mouse bearing the tumor was euthanized. Surviving days measured from day 0 for mice treated with anticancer drugs (T) and surviving days measured from day 0 for control mice (C) were recorded. Tumor growth inhibition values (T/C %) were calculated using the formula T/C %=(surviving days of mice treated with an anticancer drug T/surviving days of control mice C)×100%, as shown in Table II.
The final right-hand column in Table II provides a ratio of the extra days of survival of mice treated with the compounds of the invention (compared to control) to the extra days of survival of mice treated with taxol (compared to control).

Take `CCC1(OC(=O)COc2ccc(C=O)cc2)C(=O)OCc2c1cc1n(c2=O)Cc2cc3ccccc3nc2-1` (centres unmarked) [Example 000313, Camptothecin-20-O-ester of 4-formylphenoxyacetic acid]: the “In vitro efficacy: Survival (%) of cells line VM46” value in series [1] (1 nM) came out at 41.58%; in series [1] (10 nM) it was 0%. Besides, the “In vitro efficacy: Survival (%) of cells line PC-3” value in series [2] (1 nM) stood at 89.51%; in series [2] (5 nM), 21.16%. The “In Vitro Efficacy: Survival (%) of HCT116” value in series [3] (1 nM) stood at 100%; in series [3] (10 nM), 0%; in series [3] (100 nM), 0%. Moreover, in series [4], the “In Vivo Toxicity MTD40 (ip, mg/kg) in C3H/Hej Mice” value is reported as more than 150 mg/kg. Also, the “T (Surviving days after treatment of MTG-B mouse mammary Adenocarcinoma In C3H/Hej mice)” value in series [5] was found to be 9 days. For the same compound, the CD/Taxol in series [5] was 1.0. The compound also returned a T/C % in series [5] of 150%.

Regarding `CC[C@@]1(OC(=O)COc2ccc(Br)cc2)C(=O)OCc2c1cc1n(c2=O)Cc2cc3ccccc3nc2-1` [Example 000315, Camptothecin-20-Oester of 4-bromophenoxyacetic acid], the “In vitro efficacy: Survival (%) of cells line VM46” value is recorded as 64.37% in series [1] (1 nM) and 0% in series [1] (10 nM). In addition, the results for the “In vitro efficacy: Survival (%) of cells line PC-3” value in series [2] (1 nM) and in series [2] (5 nM) were 87.38% and 22.24%, respectively. The entries for the “In Vitro Efficacy: Survival (%) of HCT116” value in series [3] (1 nM), in series [3] (10 nM) and in series [3] (100 nM) were 100%, 0% and 0%, respectively. Besides, the “In Vivo Toxicity MTD40 (ip, mg/kg) in C3H/Hej Mice” value in series [4] is on record as more than 150 mg/kg. In series [5], the “T (Surviving days after treatment of MTG-B mouse mammary Adenocarcinoma In C3H/Hej mice)” value was 18 days. In series [5], the CD/Taxol was 4. Further, the T/C % in series [5] is given as 300%.

Regarding `CCC1(OC(=O)COc2c(F)c(F)c(F)c(F)c2F)C(=O)OCc2c1cc1n(c2=O)Cc2cc3ccccc3nc2-1` (centres unmarked) [Example 000410, Camptothecin-20-O-ester of 2,3,4,5,6-pentafluorophenoxyacetic acid], the “In vitro efficacy: Survival (%) of cells line VM46” value in series [1] (1 nM) was determined as 68.75%; in series [1] (10 nM), 0%. Moreover, the “In vitro efficacy: Survival (%) of cells line PC-3” value in series [2] (1 nM) is recorded as 93.31%; in series [2] (5 nM) it was 23.33%. For the same compound, the results for the “In Vitro Efficacy: Survival (%) of HCT116” value in series [3] (1 nM), in series [3] (10 nM) and in series [3] (100 nM) were 88.96%, 0% and 0%, respectively. The “In Vivo Toxicity MTD40 (ip, mg/kg) in C3H/Hej Mice” value in series [4] came to 45 mg/kg. Further, the “T (Surviving days after treatment of MTG-B mouse mammary Adenocarcinoma In C3H/Hej mice)” value in series [5] is listed as 12 days. In series [5], the CD/Taxol came to 2.0. The compound also gave a T/C % in series [5] of 200%.

In the case of `CCC1(OC(=O)COc2ccccc2[N+](=O)[O-])C(=O)OCc2c1cc1n(c2=O)Cc2cc3ccccc3nc2-1` (centres unmarked) [Example 000411, Camptothecin-20-O-ester of 2-nitrophenoxyacetic acid], the “In vitro efficacy: Survival (%) of cells line VM46” value in series [1] (1 nM) is reported as 76.87%; in series [1] (10 nM) it was 0%. Besides, the “In vitro efficacy: Survival (%) of cells line PC-3” value in series [2] (1 nM) is listed as 90.09%; in series [2] (5 nM) it was 33.09%. Also, the “In Vitro Efficacy: Survival (%) of HCT116” value amounted to 95.13% in series [3] (1 nM), 0% in series [3] (10 nM) and 0% in series [3] (100 nM). In addition, the “In Vivo Toxicity MTD40 (ip, mg/kg) in C3H/Hej Mice” value in series [4] is on record as more than 150 mg/kg. For the same compound, the “T (Surviving days after treatment of MTG-B mouse mammary Adenocarcinoma In C3H/Hej mice)” value in series [5] was 8 days. Also, the CD/Taxol result in series [5] was “.7”. In series [5], this compound came in with a T/C % of 133%.

In the case of `CCC1(OC(=O)COc2cccc(Cl)c2Cl)C(=O)OCc2c1cc1n(c2=O)Cc2cc3ccccc3nc2-1` (centres unmarked) [Example 000412, Camptothecin-20-O-ester of 2,3-dichlorophenoxyacetic acid], the “In vitro efficacy: Survival (%) of cells line VM46” value in series [1] (1 nM) was 50.72%; in series [1] (10 nM), 0%. In addition, the “In vitro efficacy: Survival (%) of cells line PC-3” value in series [2] (1 nM) came to 83.00%; in series [2] (5 nM), 8.68%. Moreover, the “In Vitro Efficacy: Survival (%) of HCT116” value in series [3] (1 nM) came to 81.36%; in series [3] (10 nM), 0%; in series [3] (100 nM), 0%. The “In Vivo Toxicity MTD40 (ip, mg/kg) in C3H/Hej Mice” value in series [4] is recorded as 100 mg/kg. In series [5], the “T (Surviving days after treatment of MTG-B mouse mammary Adenocarcinoma In C3H/Hej mice)” value amounted to 17 days. Moreover, in series [5], the CD/Taxol worked out at 3.7. Besides, the T/C % in series [5] is listed as 283%.

Take `CCC1(OC(=O)COc2ccc(I)cc2)C(=O)OCc2c1cc1n(c2=O)Cc2cc3ccccc3nc2-1` (centres unmarked) [Example 000413, Camptothecin-20-Oester of 4-iodophenoxyacetic acid]: the “In vitro efficacy: Survival (%) of cells line VM46” value was 73.61% in series [1] (1 nM) and 0% in series [1] (10 nM). For the same compound, the “In vitro efficacy: Survival (%) of cells line PC-3” value was determined as 89.51% in series [2] (1 nM) and 33.64% in series [2] (5 nM). Besides, the “In Vitro Efficacy: Survival (%) of HCT116” value in series [3] (1 nM) is listed as 87.62%; in series [3] (10 nM), 0%; in series [3] (100 nM), 0%. The “In Vivo Toxicity MTD40 (ip, mg/kg) in C3H/Hej Mice” value in series [4] is given as more than 150 mg/kg. The “T (Surviving days after treatment of MTG-B mouse mammary Adenocarcinoma In C3H/Hej mice)” value in series [5] stood at 18 days. Also, the CD/Taxol in series [5] is 4. This compound returned a T/C % in series [5] of 300%.

`CCC1(OC(=O)COc2ccc(F)cc2)C(=O)OCc2c1cc1n(c2=O)Cc2cc3ccccc3nc2-1` (centres unmarked) [Example 000417, camptothecin-20-O-4-fluorophenoxyacetate]: the “In vitro efficacy: Survival (%) of cells line VM46” value in series [1] (1 nM) was 83.50%; in series [1] (10 nM) it was 0%. For the same compound, the “In vitro efficacy: Survival (%) of cells line PC-3” value in series [2] (1 nM) was found to be 97.65%; in series [2] (5 nM), 61.85%. Besides, the “In Vitro Efficacy: Survival (%) of HCT116” value in series [3] (1 nM) is on record as 100%; in series [3] (10 nM), 0%; in series [3] (100 nM), 0%. Moreover, in series [4], the “In Vivo Toxicity MTD40 (ip, mg/kg) in C3H/Hej Mice” value is on record as more than 150 mg/kg. Also, in series [5], the “T (Surviving days after treatment of MTG-B mouse mammary Adenocarcinoma In C3H/Hej mice)” value was 18 days. In series [5], the CD/Taxol worked out at 4. In series [5], this compound came in with a T/C % of 300%.
